The subject of data set [1] is pulmonary fibrosis in mice. The experiment in a line: Pulmonary fibrosis model (bleomycin, asbestos or X-ray induced). Type of data set: in vivo. The method, then:
Induction of pulmonary fibrosis by intratracheal injection of bleomycin sulphate (BLM; 0.05 units) was followed by nebulization of PB141 (25 mg/kg) or vehicle (saline) and delivery to cage air via a micropump nebulizer. After 21 days lung samples were obtained. (A) Lung hydroxyproline content. (B) Lung fibrinolysis. (C) Lung collagen content. (D) Lung TGF-β content. Data are representative of one of two independent experiments with n=5-7 mice per group; ** p<0.01, *** p<0.001.
Lung fibrosis was induced by methods previously reported in literature of the relevant art. Briefly, 50 μl of bleomycin sulfate in saline or 0.1 mg of NIEHS crocidolite asbestos (N 10 μm in length) was administered intratracheally into anesthetized mice. In some experiments fibrosis was induced by the following standard X-ray exposure procedure: Anesthetized mice at the age of 10-12 weeks were immobilized, with a lead shield excluding all but the thoracic cavity. Animals were then irradiated with a single dose of 14.5 Gy from a cesium source (J. L. Shepherd and Associates, San Fernando, Calif.) at a dose rate of 1.65 Gy/min LD50 for C57BL/6J mice is 14.5 Gy. At this dose, survival is sufficient to permit adequate numbers of animals for long-term analyses.
After induction of pulmonary fibrosis using the methods as described above, PB141 (25 mg/kg) dissolved in normal saline was delivered for 30 min via a micropump nebulizer (Buxco Research Systems, Wilmington, N.C.) fitted at the chamber inlet. After 21 days, bronchoalveolar lavage fluid (BALF) samples were obtained and analyzed for cellular infiltration by hemocytometer and differential staining of cells. Pulmonary fibrosis was assessed from lung homogenates by estimating total lung collagen content using the Sircol Collagen Assay kit (Biocolor) and hydroxyproline content using a hydroxyproline assay kit (BioVision, Mountain View, Calif.) according to the manufacturer's instructions. Lung histology sections were assessed by morphometry, hematoxylin and eosin (H&E) staining, and Masson's trichrome staining.

Data set [2] relates to OVA allergen-induced asthma in mice. The experiment in a line: Ovalbumin-induced asthma model. The format is in vivo. The following applies: 25 mg/kg nebulized 30 min after each OVA challenge. The method, then: Allergen-induced asthma was produced in mice by initial sensitization by intraperitoneal (i.p.) injection of OVA on days 0 and 7 and challenge by intratracheal injection of OVA on even-numbered days 14 through 22. Thirty minutes following each OVA challenge, PB141 (25 mg/kg) or vehicle (saline) was nebulized and delivered to cage air via a micropump nebulizer. Twenty-four hours after the last challenge and nebulization; airway hyperresponsiveness to increasing concentrations of inhaled methacholine was determined by the forced oscillation (flexiVent) method. (A) Airway resistance. (B) Airway elastance. Data are representative of one of two independent experiments with n=6-8 mice per group.
Allergen induced asthma was produced in mice by initial sensitization by intraperitoneal (i.p.) injection of OVA on days 0 and 7 and challenge by intratracheal injection of OVA on even-numbered days 14 through 22. Thirty minutes after each OVA challenge, PB141 (25 mg/kg) or vehicle (saline) was nebulized and delivered to cage air via a micropump nebulizer. Twenty-four hours following the last challenge and nebulization, BAL fluid, plasma, and lung samples were obtained. (A) Total and differential cell count in BAL fluid. (B) Microscopic examination following staining of BAL fluid. (C) H2O2 production, (D) Protein concentration in BAL fluid. Data are representative of one of two independent experiments with n=7-10 mice per group; *** p<0.001.
Allergen-induced asthma was produced in mice by initial sensitization by intraperitoneal (i.p.) injection of OVA on days 0 and 7 and challenge by intracheal injection of OVA on even-numbered days 14 through 22. Thirty minutes after each OVA challenge, PB141 (25 mg/kg) or vehicle (saline) was nebulized and delivered to cage air via a micropump nebulizer. Twenty-four hours following the last challenge and nebulization lung samples were obtained. The lung was examined histologically following (A) H&E staining, (B) trichrome staining, and (C) periodic acid Schiffs (PAS) staining. Data are representative of one of two independent experiments with n=7-10 mice per group.
Allergen induced asthma was produced in mice by initial sensitization by intraperitoneal injection of OVA on days 0 and 7 and challenge by intratracheal injection of OVA on even-numbered days 14 through 22. […] Twenty-four hours following the last challenge and nebulization. airway hyperresponsiveness to methacholine challenge was measured noninvasively by whole body plethysmography (WBP; Buxco Research Systems, Wilmington, N.C.) and, invasively by computer-controlled ventilator (flexiVent; SCIREQ Inc., Montreal, Canada). Cellular Infiltration into the airspace was assessed by measuring myeloperoxidase activity in the lung and the number of polymorphonuclear neutrophils and eosinophils in bronchoalveolar lavage fluid (BALF). Lung inflammation was assessed by vascular permeability, edema, and cytokine generation. Anti-OVA IgE concentrations in the serum were measured using an ELISA kit (MD Bioproducts, St. Paul, Minn.). Lung histology sections were assessed by morphometry, with May-Grünwald-Giemsa or Periodic acid-Schiff (PAS) staining used for detection of mucopolysaccharide accumulation, Sirius Red or Masson's trichrome staining for detection of collagen deposition, and hematoxylin and eosin (H&E) staining for assessment of inflammation. Lung collagen content was determined by quantifying soluble collagen with the Sircol Collagen Assay Kit (Biocolor).

For a further data set, the target named is T1, p65 subunit of NF-κB (Homo sapiens, UniProt Q04206).
T1 construct: endogenous in cells; host or cells: BEAS-2B
The experiment in a line: LPS-induced NF-κB p65 DNA-binding activity in BEAS-2B cells. Type of data set: cell-based. Particulars: 1 h pre-treatment, then LPS 6 h. The procedure:
BEAS-2B cells were treated with varying concentrations of PB141 for 24 h, after which (A) Nrf2 activity was measured or (C) nuclear Nrf2 concentration was determined by Western blotting. (B) In other experiments cells were pretreated with varying concentrations of PB141 for 1 h, then with LPS (500 ng/ml) for 6 h. Cells were then isolated and activity of NF-κB was measured.
BEAS-2B cells were cultured in Dulbecco's modified Eagle's medium (DMEM) containing 10% heat-inactivated fetal bovine serum, penicillin, and streptomycin (100 IU/ml). Monolayer cultures were treated with different concentrations of PB141 for 24 h. Cells were then isolated and the DNA-binding activity of the antioxidant transcription factor Nrf2 was determined. The nuclear concentration of Nrf2 was also determined by Western blotting. […] In some experiments monolayer cultures were deprived of serum for 24 h, pre-treated with different concentrations of PB141 for 1 h, then exposed to LPS for 6 h. Nuclear proteins were prepared and were used to quantify DNA-binding activity of the p65 subunit of NF-κB.

SMILES strings stand for the structures.

T1 sequence (Q04206 whole entry): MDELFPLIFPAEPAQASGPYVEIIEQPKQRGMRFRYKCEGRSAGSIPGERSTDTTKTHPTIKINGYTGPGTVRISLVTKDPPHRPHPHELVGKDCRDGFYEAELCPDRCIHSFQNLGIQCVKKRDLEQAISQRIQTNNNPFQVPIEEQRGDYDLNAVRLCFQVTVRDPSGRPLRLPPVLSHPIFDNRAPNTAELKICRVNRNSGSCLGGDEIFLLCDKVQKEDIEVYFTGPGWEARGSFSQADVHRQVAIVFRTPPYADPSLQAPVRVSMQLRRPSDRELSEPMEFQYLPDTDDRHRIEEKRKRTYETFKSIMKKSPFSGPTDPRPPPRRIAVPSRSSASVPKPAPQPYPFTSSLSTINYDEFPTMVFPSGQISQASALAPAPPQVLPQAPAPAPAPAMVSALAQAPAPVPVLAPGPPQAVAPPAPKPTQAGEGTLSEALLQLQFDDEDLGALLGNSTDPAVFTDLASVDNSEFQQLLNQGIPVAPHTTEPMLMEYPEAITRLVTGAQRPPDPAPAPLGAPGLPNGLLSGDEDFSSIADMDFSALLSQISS

Take `CC(=O)N[C@@H](CSC(CC(=O)CC(SC[C@H](NC(C)=O)C(=O)O)c1cnccn1)c1cnccn1)C(=O)O` (stereo partly drawn) [PB141]: in data set [1] (25 mg/kg nebulized, 21 days), the Collagen production result is reported as “effectively prevented”, the Inflammatory cell infiltration entry is on record as “effectively prevented” and the Myofibroblast differentiation result is “effectively prevented”. Moreover, the “Tolerability of the solution” value in data set [1] (even with intratracheal administration) is “well tolerated”. In data set [1] (repeated pulmonary dosing, 25 mg/kg), the Pulmonary fibrosis entry is “significantly reduced”. In data set [2], the “Airway hyperresponsiveness to methacholine” value is “significantly suppressed”; the Airway remodeling result is “lessening”; the “Expression of cytokines, chemokines, and IgE in BALF and serum” value is listed as “attenuated”; the “Infiltration of inflammatory cells into the airspace and lung” value was “suppressed”. The Mucus accumulation result in data set [2] was “lessening”. In addition, at p65 subunit of NF-κB (1 μM), the “Inhibition of NF-κB activity at 1 μM” value is on record as “almost complete inhibition”. Also, the “NF-κB activity (p65 DNA-binding)” value on p65 subunit of NF-κB (different concentrations) is recorded as “inhibited NF-κB activity in a concentration-dependent manner”.

The values above are taken from patent US9862690B2, “Treatment of pulmonary and other conditions” (University of Pittsburgh—of the Commonwealth System of …, priority 2013, dated 2018).
